Data as given in US20020137929A1, “1 - (3-heterocyclylphenyl) isothiourea, -isourea, -guanidine and -amidine herbicidal agents” (Intellectual Property Department, BASF Aktiengesellschaft, priority 1998, published 2002).

Assays:
GALAP (Galium) = assay: Postemergence herbicidal evaluation; assay type: in vivo, Galium aparine; conditions: postemergence
In short: (§1)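 Visual 0–9 rating versus control (stand, vigor, malformation, size, chlorosis, overall appearance), taken four to five weeks post-spray. Two-week-old seedlings received roughly 0.0156–0.500 kg/ha active in acetone/water (50/50) with 0.5% TWEEN 20 via nozzle at 40 psi.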

[1] = tested on: IPOHE (Morningglory, Ivyleaf); assay: Postemergence herbicidal evaluation; assay type: in vivo, Ipomoea hederacea; conditions: postemergence
In short: as §1

SETVI (Foxtail, Green) [2] = assay: Postemergence herbicidal evaluation; assay type: in vivo, Setaria viridis; conditions: postemergence
In short: as §1

[3] = tested on: TRZAWR (Wheat, Winter, cv Riband); assay: Postemergence herbicidal evaluation; assay type: in vivo, Triticum aestivum; conditions: postemergence
Protocol: In the tests, seedling plants are grown in jiffy flats for about two weeks. The test compounds are dispersed in 50/50 acetone/water mixtures containing 0.5% TWEEN®20, a polyoxyethylene sorbitan monolaurate surfactant of Atlas Chemical Industries, in sufficient quantities to provide the equivalent of about 0.0156 kg to 0.500 kg per hectare of active compound when applied to the plants through a spray nozzle operating at 40 psi for a predetermined time. After spraying, the plants are placed on greenhouse benches and are cared for in accordance with conventional greenhouse procedures. From four to five weeks after treatment, the seedling plants are examined and rated according to the rating system set forth below. Where more than one test is involved for a given compound, the data are averaged.
Plant species employed in these evaluations are reported by header abbreviation, common name and scientific name.
(§2) Results of herbicide evaluation are expressed on a rating scale (0-9). The scale is based upon a visual observation of plant stand, vigor, malformation, size, chlorosis and overall plant appearance as compared with a control.

ABUTH (Velvetleaf) = assay: Preemergence herbicidal evaluation; assay type: in vivo, Abutilon theophrasti; conditions: rated 4-5 weeks after treatment, rating scale 0-9
Description: as §2
(§3) The preemergence herbicidal activity of the test compounds of the present invention is exemplified by the following tests in which the seeds of a variety of monocotyledonous and dicotyledonous plants are separately mixed with potting soil and planted on top of approximately one inch of soil in separate pint cups. After planting, the cups are sprayed with the selected aqueous acetone solution containing test compound in sufficient quantity to provide the equivalent of about 0.0156 to 0.500 kg per hectare of test compound per cup. The treated cups are then placed on greenhouse benches, watered and cared for in accordance with conventional greenhouse procedures. From four to five weeks after treatment, the tests are terminated and each cup is examined and rated according to the rating system provided in Example 37.
(§4) The compounds evaluated are reported by compound number given in Example 37.

[4] = tested on: IPOHE (Morningglory, Ivyleaf); assay: Preemergence herbicidal evaluation; assay type: in vivo, Ipomoea hederacea; conditions: rated 4-5 weeks after treatment, rating scale 0-9
Description: as §2, §3, §4

ECHCG (Barnyardgrass) = assay: Preemergence herbicidal evaluation; assay type: in vivo, Echinochloa crus-galli; conditions: rated 4-5 weeks after treatment, rating scale 0-9
Description: as §2, §3, §4

SETVI (Foxtail, Green) [5] = assay: Preemergence herbicidal evaluation; assay type: in vivo, Setaria viridis; conditions: rated 4-5 weeks after treatment, rating scale 0-9
Description: as §2, §3, §4

ZEAMX (Corn, Field) = assay: Preemergence herbicidal evaluation; assay type: in vivo, Zea mays; conditions: rated 4-5 weeks after treatment, rating scale 0-9
Description: as §2, §3, §4

[6] = tested on: ECHORC (Watergrass (Calif.)); assay: Preemergence weed control under flooded paddy conditions; assay type: in vivo, Echinochloa oryzoides; conditions: rated 3-4 weeks after treatment
Protocol: as §2
(§5) Preemergence herbicidal activity under flooded paddy conditions is determined as follows: plant seeds or propagating organs are planted in the top 0.5 cm of silt loam soil in 32 oz. plastic containers with a diameter of 10.5 cm and no drainage holes. Water is added to these containers and maintained at 1.5 to 3 cm above the soil surface for the duration of the experiment. The test compounds are applied as aqueous/acetone mixtures 50/50 v/v pipetted directly into the flood water to give the equivalent of about 0.0313 to 0.500 kg/ha of active ingredient. The treated containers are placed on greenhouse benches and cared for in accordance with conventional greenhouse procedures. Three to four weeks after treatment, the test is terminated and each container is examined and herbicidal effect rated according to the rating system provided in Example 37. The compounds evaluated are reported by compound number given in Example 37.
(§6) Plant species employed in this example are reported by header abbreviation, common name and scientific name.

CYPIR (Rice Flatsedge) = assay: as above; assay type: in vivo, Cyperus iria; conditions: rated 3-4 weeks after treatment
Protocol: as §2, §5, §6

MOOVA (Monochoria) = assay: as above; assay type: in vivo, Monochoria vaginalis; conditions: rated 3-4 weeks after treatment
In short: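 First, seeds or propagules go into the top 0.5 cm of silt loam; next, water is held 1.5 to 3 cm over the soil; then compound (50/50 acetone/water) is pipetted into it at about 0.0313 to 0.500 kg/ha; finally plants are rated visually 0-9 after three to four weeks.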

Cc1ccc(CN2C(=O)CSC2=Nc2cc(-n3c(=O)cc(C(F)(F)F)n(C)c3=O)c(F)cc2Cl)cc1Cl [Compound 149, 3-{4-Chloro-5-{[3-(3-chloro-4-methylbenzyl)-4-oxo-2-thiazolidinylidene]amino}-2-fluorophenyl}-1-methyl-6-(trifluoromethyl)-2,4(1H,3H)-pyrimidinedione]
6.0: herbicidal effect rating, ECHORC ([6]; 0.1250 kg/ha)
9.0: Herbicidal rating IPOHE ([1]; rate 0.0156 kg/ha) | Herbicidal rating IPOHE ([1]; rate 0.0313 kg/ha) | Herbicidal rating IPOHE ([1]; rate 0.0625 kg/ha)
5.0: herbicidal effect rating, MOOVA (MOOVA (Monochoria); 0.0313 kg/ha)
7.0: Preemergence herbicidal rating ABUTH (ABUTH (Velvetleaf); rate 0.2500 kg/ha) | herbicidal effect rating, ECHORC ([6]; 0.2500 kg/ha) | herbicidal effect rating, CYPIR (CYPIR (Rice Flatsedge); 0.1250 kg/ha) | herbicidal effect rating, MOOVA (MOOVA (Monochoria); 0.0625 kg/ha) | herbicidal effect rating, MOOVA (MOOVA (Monochoria); 0.1250 kg/ha) | herbicidal effect rating, MOOVA (MOOVA (Monochoria); 0.2500 kg/ha)
2.0: Herbicidal rating GALAP (GALAP (Galium); rate 0.0625 kg/ha) | Preemergence herbicidal rating IPOHE ([4]; rate 0.2500 kg/ha) | Preemergence herbicidal rating ZEAMX (ZEAMX (Corn, Field); rate 0.2500 kg/ha) | herbicidal effect rating, ECHORC ([6]; 0.0313 kg/ha)
0.0: Herbicidal rating GALAP (GALAP (Galium); rate 0.0156 kg/ha) | Herbicidal rating GALAP (GALAP (Galium); rate 0.0313 kg/ha) | Herbicidal rating SETVI (SETVI (Foxtail, Green) [2]; rate 0.0156 kg/ha) | Herbicidal rating SETVI (SETVI (Foxtail, Green) [2]; rate 0.0313 kg/ha) | Herbicidal rating SETVI (SETVI (Foxtail, Green) [2]; rate 0.0625 kg/ha) | Preemergence herbicidal rating IPOHE ([4]; rate 0.1250 kg/ha) | Preemergence herbicidal rating ECHCG (ECHCG (Barnyardgrass); rate 0.1250 kg/ha) | Preemergence herbicidal rating ECHCG (ECHCG (Barnyardgrass); rate 0.2500 kg/ha) | Preemergence herbicidal rating SETVI (SETVI (Foxtail, Green) [5]; rate 0.1250 kg/ha) | Preemergence herbicidal rating SETVI (SETVI (Foxtail, Green) [5]; rate 0.2500 kg/ha) | Preemergence herbicidal rating ZEAMX (ZEAMX (Corn, Field); rate 0.1250 kg/ha)
4.0: herbicidal effect rating, CYPIR (CYPIR (Rice Flatsedge); 0.0625 kg/ha) | herbicidal effect rating, CYPIR (CYPIR (Rice Flatsedge); 0.2500 kg/ha)
3.5: Herbicidal rating TRZAWR ([3]; rate 0.0313 kg/ha) | Herbicidal rating TRZAWR ([3]; rate 0.0625 kg/ha)
3.0: Herbicidal rating TRZAWR ([3]; rate 0.0156 kg/ha) | Preemergence herbicidal rating ABUTH (ABUTH (Velvetleaf); rate 0.1250 kg/ha) | herbicidal effect rating, ECHORC ([6]; 0.0625 kg/ha) | herbicidal effect rating, CYPIR (CYPIR (Rice Flatsedge); 0.0313 kg/ha)
